Laboratory results from patent US20220054513A1, “COMBINATION COMPOSITIONS COMPRISING A BETA-LACTAMASE INHIBITOR” (VenatoRx Pharmaceuticals, Inc., priority 2018, published 2022).
Where two headings read alike, the source gives them in different places.

Experiments:
[1] = test system: β-lactamase expressing E. coli; assay: broth microdilution MIC of cefiderocol +/- Compound 1, E. coli strains; assay type: cell-based; settings: Escherichia coli
MDR-Pseudomonas = assay: broth microdilution MIC of cefiderocol +/- Compound 1 in IDM, panel of 16 MDR Pseudomonas aeruginosa; assay type: cell-based, P. aeruginosa; settings: for MIC: Pseudomonas aeruginosa, read-out: Minimum inhibitory concentration (MIC)
[2] = test system: carbapenem resistant Enterobacteriaceae (CRE); assay: MIC of cefiderocol with Compound 1 vs approved BL/BLI combinations, 120 CRE isolates
Description: A panel of 30 strains of characterized Enterobacteriaceae isolates produce Ambler class A, B, C, and D β-lactamase were used. […] IDM was prepared by adding 100 g of chelex (a chelating agent) to 1 L of sterile CAMBH and stirring for 2 hours. The chelex treated media was then filtered using a 0.2 μm filter and divalent Ca, Mg, and Zn are added back at relevant concentrations. The pH was adjusted to 7.2 using HCl and the media was filtered again to ensure sterility. This created a medium that was devoid of iron but retains appropriate concentration of other cations and was necessary for evaluating the activity of cefiderocol originating from its uptake by bacterial iron transporters. Bacteria strains were grown for 3-5 hours in CAMHB and IDM. Cefiderocol was added either to a microtiter plate in 2-fold serial dilutions in CAMHB and in parallel in IDM. […] Once the test articles were added the plates were inoculated according to CLSI broth microdilution method.
The challenge set of organisms consisted of a variety of Enterobacteriaceae species expressing IMP (n=30), NDM (30), VIM (15), KPC (n=30), and AmpC (n=15).

[3] = panel of 16 MDR Pseudomonas aeruginosa, IDM

CC(C)(O/N=C(\C(=O)N[C@@H]1C(=O)N2C(C(=O)[O-])=C(C[N+]3(CCNC(=O)c4ccc(O)c(O)c4Cl)CCCC3)CS[C@H]12)c1csc(N)n1)C(=O)O [FDC, cefiderocol]
MIC ([1]; read-out: Minimum inhibitory concentration (MIC), E. coli 128 (AmpC, SHV-12, TOHO-2, TEM-1), IDM): 0.5 µg/mL
MIC ([1]; read-out: Minimum inhibitory concentration (MIC), E. coli 128 (AmpC, SHV-12, TOHO-2, TEM-1), MHBII): 2 µg/mL
MIC ([1]; read-out: Minimum inhibitory concentration (MIC), E. coli 3073 (AmpC, CTX-M3), IDM): 0.5 µg/mL
MIC ([1]; read-out: Minimum inhibitory concentration (MIC), E. coli 3073 (AmpC, CTX-M3), MHBII): 8 µg/mL
MIC ([1]; read-out: Minimum inhibitory concentration (MIC), E. coli 3327 (TEM-1, SHV-12), IDM): 0.125 µg/mL
MIC ([1]; read-out: Minimum inhibitory concentration (MIC), E. coli 3327 (TEM-1, SHV-12), MHBII): 0.5 µg/mL
MIC ([1]; read-out: Minimum inhibitory concentration (MIC), E. coli 786978 (KPC 2), IDM): 0.25 µg/mL
MIC ([1]; read-out: Minimum inhibitory concentration (MIC), E. coli 786978 (KPC 2), MHBII): 4 µg/mL
MIC ([1]; read-out: Minimum inhibitory concentration (MIC), E. coli 787112 (OXA 48), IDM): 64 µg/mL
MIC ([1]; read-out: Minimum inhibitory concentration (MIC), E. coli 787112 (OXA 48), MHBII): 64 µg/mL
MIC ([1]; read-out: Minimum inhibitory concentration (MIC), E. coli CDC-61 (KPC-3 TEM-1), IDM): 0.125 µg/mL
MIC ([1]; read-out: Minimum inhibitory concentration (MIC), E. coli CDC-61 (KPC-3 TEM-1), MHBII): 0.25 µg/mL
MIC ([1]; read-out: Minimum inhibitory concentration (MIC), E. coli CDC-114 (KPC-3), IDM): 0.5 µg/mL
MIC ([1]; read-out: Minimum inhibitory concentration (MIC), E. coli CDC-114 (KPC-3), MHBII): 4 µg/mL
MIC ([1]; read-out: Minimum inhibitory concentration (MIC), E. coli CDC-150 (NDM-5), IDM): 4 µg/mL
MIC ([1]; read-out: Minimum inhibitory concentration (MIC), E. coli CDC-150 (NDM-5), MHBII): 128 µg/mL
MIC ([1]; read-out: Minimum inhibitory concentration (MIC), E. coli GUE 131 (NDM-1), IDM): 1 µg/mL
MIC ([1]; read-out: Minimum inhibitory concentration (MIC), E. coli GUE 131 (NDM-1), MHBII): 2 µg/mL
MIC ([1]; read-out: Minimum inhibitory concentration (MIC), E. coli SI-151 (VIM-1), IDM): 0.125 µg/mL
MIC ([1]; read-out: Minimum inhibitory concentration (MIC), E. coli SI-151 (VIM-1), MHBII): 0.5 µg/mL
MIC ([1]; read-out: Minimum inhibitory concentration (MIC), E. coli SI-152 (NDM-1), IDM): 0.125 µg/mL
MIC ([1]; read-out: Minimum inhibitory concentration (MIC), E. coli SI-152 (NDM-1), MHBII): 0.125 µg/mL
MIC ([1]; read-out: Minimum inhibitory concentration (MIC), E. coli SI-155S (VIM-1), IDM): 1 µg/mL
MIC ([1]; read-out: Minimum inhibitory concentration (MIC), E. coli SI-155S (VIM-1), MHBII): 2 µg/mL
MIC ([1]; read-out: Minimum inhibitory concentration (MIC), E. coli SI-P026TC (CMY-2, TEM-1), IDM): 0.125 µg/mL
MIC ([1]; read-out: Minimum inhibitory concentration (MIC), E. coli SI-P026TC (CMY-2, TEM-1), MHBII): 0.25 µg/mL
MIC (MDR-Pseudomonas; P. aeruginosa 40, IDM): 4 µg/mL
MIC (MDR-Pseudomonas; P. aeruginosa 451, IDM): 4 µg/mL
MIC (MDR-Pseudomonas; P. aeruginosa 635, IDM): 0.5 µg/mL
MIC (MDR-Pseudomonas; P. aeruginosa 152021, IDM): 0.25 µg/mL
MIC (MDR-Pseudomonas; P. aeruginosa 1013996, IDM): 0.25 µg/mL
MIC (MDR-Pseudomonas; P. aeruginosa 1121828, IDM): 1 µg/mL
MIC (MDR-Pseudomonas; P. aeruginosa 1131170, IDM): 2 µg/mL
MIC (MDR-Pseudomonas; P. aeruginosa 1179543, IDM): 2 µg/mL
MIC (MDR-Pseudomonas; P. aeruginosa CDC-0054, IDM): 0.5 µg/mL
MIC (MDR-Pseudomonas; P. aeruginosa CDC-0064, IDM): 0.5 µg/mL
MIC (MDR-Pseudomonas; P. aeruginosa CDC-0095, IDM): 0.059 µg/mL
MIC (MDR-Pseudomonas; P. aeruginosa CDC-0103, IDM): 4 µg/mL
MIC (MDR-Pseudomonas; P. aeruginosa CDC-0108, IDM): 0.25 µg/mL
MIC (MDR-Pseudomonas; P. aeruginosa CDC-0110, IDM): 8 µg/mL
MIC (MDR-Pseudomonas; P. aeruginosa CDC-0111, IDM): 0.059 µg/mL
MIC (MDR-Pseudomonas): 0.125 µg/mL
MIC50 (MDR-Pseudomonas; [3]): 0.5 µg/mL
MIC90 (MDR-Pseudomonas; [3]): 4 µg/mL
MIC [2]: 0.059 µg/mL
MIC50 [2]: 1 µg/mL
MIC90 [2]: 8 µg/mL
MIC ([2]; Enterobacter cloacae, Enterobacter cloacae 1207515 (NDM-6), IDM): 64 µg/mL
MIC ([2]; Enterobacter cloacae, Enterobacter cloacae 1212159 (NDM-6), IDM): 16 µg/mL
MIC ([2]; Enterobacter cloacae, Enterobacter cloacae 1212160 (NDM-6), IDM): 16 µg/mL
MIC ([2]; Enterobacter cloacae, Enterobacter cloacae 1256568 (VIM-23), IDM): 0.125 µg/mL
MIC ([2]; Enterobacter cloacae, Enterobacter cloacae 1284042 (VIM-5), IDM): 8 µg/mL
MIC ([2]; Enterobacter cloacae, Enterobacter cloacae 1284044 (VIM-5), IDM): 4 µg/mL
MIC ([2]; Enterobacter cloacae, Enterobacter cloacae 1284065 (VIM-5), IDM): 4 µg/mL
MIC ([2]; Enterobacter cloacae, Enterobacter cloacae 1284066 (VIM-5), IDM): 32 µg/mL
MIC ([2]; Enterobacter cloacae, Enterobacter cloacae 1455568 (NDM-4), IDM): 16 µg/mL
MIC ([2]; Enterobacter cloacae, Enterobacter cloacae 1488830 (IMP-14), IDM): 2 µg/mL
MIC ([2]; Enterobacter cloacae, Enterobacter cloacae 1490669 (IMP-4), IDM): 0.25 µg/mL
MIC ([2]; Enterobacter cloacae, Enterobacter cloacae 1590932 (VIM-4), IDM): 2 µg/mL
MIC ([2]; Enterobacter cloacae, Enterobacter cloacae 1703478 (IMP-4), IDM): 0.125 µg/mL
MIC ([2]; Enterobacter cloacae, Enterobacter cloacae IHMA 908146 (ACT-1, CTX-M-22, IMP), IDM): 0.125 µg/mL
MIC ([2]; Escherichia coli, Escherichia coli 128 (AmpC, SHV-12, TOHO-2, TEM-1), IDM): 0.5 µg/mL
MIC ([2]; Escherichia coli, Escherichia coli 233 (AmpC, SHV-2, KPC-3, CTX-M-15 and TEM-1), IDM): 1 µg/mL
MIC ([2]; Escherichia coli, Escherichia coli 469 (AmpC, SHV-12, TEM-1), IDM): 0.5 µg/mL
MIC ([2]; Escherichia coli, Escherichia coli 3073 (AmpC, CTX-M-3), IDM): 1 µg/mL
MIC ([2]; Escherichia coli, Escherichia coli 3102 (AmpC, CTX-M-15, TEM-1), IDM): 0.059 µg/mL
MIC ([2]; Escherichia coli, Escherichia coli 54321 (AmpC, CTX-M-15, TEM-1), IDM): 2 µg/mL
MIC ([2]; Escherichia coli, Escherichia coli 64167 (AmpC, TEM-1, GES-5), IDM): 0.25 µg/mL
MIC ([2]; Escherichia coli, Escherichia coli 786978 (KPC-2), IDM): 0.5 µg/mL
MIC ([2]; Escherichia coli, Escherichia coli 1266865 (NDM-5), IDM): 8 µg/mL
MIC ([2]; Escherichia coli, Escherichia coli 1275629 (VIM-23), IDM): 0.5 µg/mL
MIC ([2]; Escherichia coli, Escherichia coli 1275635 (VIM-23), IDM): 0.5 µg/mL
MIC ([2]; Escherichia coli, Escherichia coli 1371539 (NDM-6), IDM): 2 µg/mL
MIC ([2]; Escherichia coli, Escherichia coli 1424126 (NDM-5), IDM): 128 µg/mL
MIC ([2]; Escherichia coli, Escherichia coli 1438691 (NDM-5), IDM): 16 µg/mL
MIC ([2]; Escherichia coli, Escherichia coli 1438767 (NDM-5), IDM): 128 µg/mL
MIC ([2]; Escherichia coli, Escherichia coli 1468388 (IMP-59), IDM): 2 µg/mL
MIC ([2]; Escherichia coli, Escherichia coli CH1 (AmpC, TEM-1, CTX-M-15, SHV-5, SHV-1), IDM): 0.25 µg/mL
MIC ([2]; Escherichia coli, Escherichia coli EC15521A (AmpC, CMY-2, TEM-1), IDM): 4 µg/mL
MIC ([2]; Escherichia coli, Escherichia coli EC15522A (AmpC, CMY-2, TEM-1, CTX-M-15), IDM): 0.059 µg/mL
MIC ([2]; Escherichia coli, Escherichia coli J53 (SHV-5, AmpC, TEM-1), IDM): 0.03 µg/mL
MIC ([2]; Escherichia coli, Escherichia coli SI-LP505 (AmpC, CTX-M-14, TEM-1), IDM): 0.5 µg/mL
MIC ([2]; Escherichia coli, Escherichia coli SI-LP574 (AmpC, CTX-M-14, TEM-1), IDM): 0.059 µg/mL
MIC ([2]; Escherichia coli, Escherichia coli SI-P026 (AmpC, CMY-2, TEM-1), IDM): 0.059 µg/mL
MIC ([2]; Escherichia coli, Escherichia coli SI-Vr059 (AmpC, CTX-M-32 and TEM-1), IDM): 2 µg/mL
